Measured values reported in the supplement of paper PMC10627819.

Assays:
B. subtilis 168 [1] = experiment: fitness (endpoint OD595 vs no drug) (fraction); higher = more growth
Summary of the method: (§1)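 With the first reading as background, OD595 was measured every 30 min for 14 h in 384-well plates kept at 37 °C and inoculated at OD595 0.01. TSB, LB Lennox or CY was the medium. Fitness is the optical density at the transition into stationary phase divided by the robust mean of no-drug control wells, with a cap of 1.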

S. aureus Newman [2] = experiment: as above
Summary of the method: as §1

S. pneumoniae D39V [3] = experiment: as above
Summary of the method: as §1

B. subtilis 168 [4] = experiment: Bliss interaction score (quartile over a dose matrix) (fitness difference); higher = more antagonism (negative = synergy)
Summary of the method: (§2)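 Growth was read as OD595 when cultures entered stationary phase, and each value was divided by the plate's robust no-drug mean and capped at 1. This normalised ratio is the fitness value, and fitness for each single drug came from the combination data. The Bliss score subtracts the expected fitness, taken as the product, from the observed fitness and is given as quartiles across technical, biological and donor/recipient replicates.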

S. aureus DSM 20231 = experiment: as above
Summary of the method: as §2

S. aureus Newman [5] = experiment: as above
Summary of the method: as §2

S. pneumoniae D39V [6] = experiment: as above
Summary of the method: as §2
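Throughout, for Bliss interaction score (quartile over a dose matrix): first quartile when negative (synergy) and third quartile when positive (antagonism).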
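Throughout, for fitness (endpoint OD595 vs no drug): OD595 on entry to stationary phase over no-drug wells; at most 1.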

Cc1ncc([N+](=O)[O-])n1CCO [Metronidazole] + CN(C)c1cc(NC(=O)CNC(C)(C)C)c(O)c2c1C[C@H]1C[C@H]3[C@H](N(C)C)C(O)=C(C(N)=O)C(=O)[C@@]3(O)C(O)=C1C2=O [Tigecycline]
fitness
Settings	first compound 0.625 µg/mL	first compound 1.073 µg/mL	first compound 1.25 µg/mL	first compound 2.145 µg/mL	first compound 2.5 µg/mL	first compound 4.29 µg/mL	first compound 5 µg/mL
B. subtilis 168 [1], partner 0.039 µg/mL	0.963	–	0.977	–	≥ 1	–	–
B. subtilis 168 [1], partner 0.078 µg/mL	0.942	–	0.94	–	0.976	–	–
B. subtilis 168 [1], partner 0.156 µg/mL	0.944	–	0.963	–	0.938	–	–
S. aureus Newman [2], partner 0.039 µg/mL	0.987	–	≥ 1	–	0.995	–	–
S. aureus Newman [2], partner 0.078 µg/mL	≥ 1	–	0.981	–	≥ 1	–	–
S. aureus Newman [2], partner 0.156 µg/mL	0.966	–	0.977	–	≥ 1	–	–
S. pneumoniae D39V [3], partner 0.65 µg/mL	–	0.931	0.965	0.925	0.968	0.935	0.964
S. pneumoniae D39V [3], partner 1.3 µg/mL	–	0.931	0.94	0.938	0.943	0.949	0.952
S. pneumoniae D39V [3], partner 2.6 µg/mL	–	0.921	0.957	0.911	0.964	0.943	0.952

fitness, one replicate
Settings	first compound 0.625 µg/mL	first compound 0.781 µg/mL	first compound 1.25 µg/mL	first compound 1.562 µg/mL	first compound 2.5 µg/mL	first compound 3.124 µg/mL
B. subtilis 168 [1], partner 0.125 µg/mL	≥ 1	–	≥ 1	–	≥ 1	–
B. subtilis 168 [1], partner 0.25 µg/mL	0.963	–	0.942	–	0.967	–
B. subtilis 168 [1], partner 0.5 µg/mL	0.917	–	0.927	–	0.968	–
S. aureus Newman [2], partner 0.039 µg/mL	–	≥ 1	–	0.971	–	0.932
S. aureus Newman [2], partner 0.078 µg/mL	–	≥ 1	–	≥ 1	–	≥ 1
S. aureus Newman [2], partner 0.156 µg/mL	–	≥ 1	–	≥ 1	–	0.959

Settings	Bliss interaction score
B. subtilis 168 [4]	-0.0624
S. aureus DSM 20231	0.0589
S. aureus Newman [5]	0.0458
S. pneumoniae D39V [6]	0.0439
